For assay [1], the target named is Proto-oncogene tyrosine-protein kinase Src (Homo sapiens, UniProt P12931). The assay is classed as functional.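 Also: SRC entry within a kinome-wide kinase profiling panel.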
Assay [2] concerns the target Mitogen-activated protein kinase kinase kinase kinase 5 (Homo sapiens, UniProt Q9Y4K4). The assay is classed as functional.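 Also: measured as one member of a kinome-spanning kinase panel.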
Assay [3] deals with BDNF/NT-3 growth factors receptor (Homo sapiens, UniProt Q16620). Type of assay: functional.
Sequence of BDNF/NT-3 growth factors receptor (Q16620 whole entry): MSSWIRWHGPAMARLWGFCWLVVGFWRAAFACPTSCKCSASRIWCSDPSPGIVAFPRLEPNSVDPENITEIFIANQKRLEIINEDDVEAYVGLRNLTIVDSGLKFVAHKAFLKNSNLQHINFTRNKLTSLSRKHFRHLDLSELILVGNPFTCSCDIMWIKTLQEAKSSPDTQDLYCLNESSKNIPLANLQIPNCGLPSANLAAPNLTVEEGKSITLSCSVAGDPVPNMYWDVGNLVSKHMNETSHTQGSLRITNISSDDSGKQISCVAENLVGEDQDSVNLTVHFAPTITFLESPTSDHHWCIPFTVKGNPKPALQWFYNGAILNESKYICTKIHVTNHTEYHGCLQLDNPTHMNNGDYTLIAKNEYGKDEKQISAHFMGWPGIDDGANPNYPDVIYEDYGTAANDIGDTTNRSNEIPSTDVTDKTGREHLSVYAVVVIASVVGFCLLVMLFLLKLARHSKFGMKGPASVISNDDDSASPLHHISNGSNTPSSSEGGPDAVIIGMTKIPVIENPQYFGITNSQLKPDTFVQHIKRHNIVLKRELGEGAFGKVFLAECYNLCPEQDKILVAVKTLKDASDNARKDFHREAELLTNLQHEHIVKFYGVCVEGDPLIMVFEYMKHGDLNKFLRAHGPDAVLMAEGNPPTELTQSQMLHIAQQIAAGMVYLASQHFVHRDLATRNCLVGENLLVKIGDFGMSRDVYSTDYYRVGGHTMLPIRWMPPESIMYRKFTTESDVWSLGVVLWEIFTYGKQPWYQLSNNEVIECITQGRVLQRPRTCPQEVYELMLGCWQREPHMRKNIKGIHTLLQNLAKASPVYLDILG
In assay [4] the target is Insulin-like growth factor 1 receptor (Homo sapiens, UniProt P08069). The assay can be described thus: Navigating the Kinome. Panel member name: IGF1R. The assay is classed as functional.
Sequence of Insulin-like growth factor 1 receptor (P08069 31-736 limits assumed): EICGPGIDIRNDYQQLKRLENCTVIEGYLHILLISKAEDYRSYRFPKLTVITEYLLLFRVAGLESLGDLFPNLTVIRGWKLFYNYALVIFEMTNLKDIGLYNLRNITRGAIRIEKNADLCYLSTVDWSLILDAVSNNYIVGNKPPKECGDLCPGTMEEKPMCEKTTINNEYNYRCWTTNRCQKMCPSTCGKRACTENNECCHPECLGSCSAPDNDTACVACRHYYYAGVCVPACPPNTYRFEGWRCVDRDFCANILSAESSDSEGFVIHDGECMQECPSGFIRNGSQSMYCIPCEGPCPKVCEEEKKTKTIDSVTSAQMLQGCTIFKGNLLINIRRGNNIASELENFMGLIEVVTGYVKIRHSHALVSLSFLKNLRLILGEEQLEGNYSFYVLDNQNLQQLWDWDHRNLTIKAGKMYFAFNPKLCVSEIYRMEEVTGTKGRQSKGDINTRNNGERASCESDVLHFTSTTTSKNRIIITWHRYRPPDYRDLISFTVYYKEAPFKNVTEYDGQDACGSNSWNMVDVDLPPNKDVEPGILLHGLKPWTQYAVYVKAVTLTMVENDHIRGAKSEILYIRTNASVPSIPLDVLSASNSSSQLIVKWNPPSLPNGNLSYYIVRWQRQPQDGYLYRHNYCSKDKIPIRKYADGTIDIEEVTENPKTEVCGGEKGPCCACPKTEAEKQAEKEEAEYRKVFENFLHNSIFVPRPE
Sequence of Insulin-like growth factor 1 receptor (P08069 741-1367 limits assumed): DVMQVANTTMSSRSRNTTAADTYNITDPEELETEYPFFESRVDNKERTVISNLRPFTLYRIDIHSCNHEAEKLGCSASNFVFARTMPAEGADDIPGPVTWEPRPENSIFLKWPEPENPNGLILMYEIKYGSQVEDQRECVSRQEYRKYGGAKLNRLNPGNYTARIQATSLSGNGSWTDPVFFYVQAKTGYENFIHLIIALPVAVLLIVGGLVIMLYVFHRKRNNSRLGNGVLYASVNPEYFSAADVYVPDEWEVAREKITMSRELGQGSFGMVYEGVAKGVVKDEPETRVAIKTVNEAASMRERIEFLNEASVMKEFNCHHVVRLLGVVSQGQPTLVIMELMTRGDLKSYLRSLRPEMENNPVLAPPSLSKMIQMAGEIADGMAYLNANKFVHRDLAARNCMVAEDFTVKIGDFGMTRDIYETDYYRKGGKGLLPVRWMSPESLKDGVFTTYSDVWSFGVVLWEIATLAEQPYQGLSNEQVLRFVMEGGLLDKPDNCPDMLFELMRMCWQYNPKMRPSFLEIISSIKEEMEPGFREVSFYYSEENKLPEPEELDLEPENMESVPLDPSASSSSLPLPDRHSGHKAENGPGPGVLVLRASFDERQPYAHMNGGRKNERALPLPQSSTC
Assay [5] concerns the target T1, Sentrin-specific protease 6 (Homo sapiens, UniProt Q9GZR1).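 Also: Luminescence-based dose-response confirmatory assay of SENP6 inhibition, following up an ultra-high-throughput screen.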
T1 sequence (Q9GZR1 whole entry): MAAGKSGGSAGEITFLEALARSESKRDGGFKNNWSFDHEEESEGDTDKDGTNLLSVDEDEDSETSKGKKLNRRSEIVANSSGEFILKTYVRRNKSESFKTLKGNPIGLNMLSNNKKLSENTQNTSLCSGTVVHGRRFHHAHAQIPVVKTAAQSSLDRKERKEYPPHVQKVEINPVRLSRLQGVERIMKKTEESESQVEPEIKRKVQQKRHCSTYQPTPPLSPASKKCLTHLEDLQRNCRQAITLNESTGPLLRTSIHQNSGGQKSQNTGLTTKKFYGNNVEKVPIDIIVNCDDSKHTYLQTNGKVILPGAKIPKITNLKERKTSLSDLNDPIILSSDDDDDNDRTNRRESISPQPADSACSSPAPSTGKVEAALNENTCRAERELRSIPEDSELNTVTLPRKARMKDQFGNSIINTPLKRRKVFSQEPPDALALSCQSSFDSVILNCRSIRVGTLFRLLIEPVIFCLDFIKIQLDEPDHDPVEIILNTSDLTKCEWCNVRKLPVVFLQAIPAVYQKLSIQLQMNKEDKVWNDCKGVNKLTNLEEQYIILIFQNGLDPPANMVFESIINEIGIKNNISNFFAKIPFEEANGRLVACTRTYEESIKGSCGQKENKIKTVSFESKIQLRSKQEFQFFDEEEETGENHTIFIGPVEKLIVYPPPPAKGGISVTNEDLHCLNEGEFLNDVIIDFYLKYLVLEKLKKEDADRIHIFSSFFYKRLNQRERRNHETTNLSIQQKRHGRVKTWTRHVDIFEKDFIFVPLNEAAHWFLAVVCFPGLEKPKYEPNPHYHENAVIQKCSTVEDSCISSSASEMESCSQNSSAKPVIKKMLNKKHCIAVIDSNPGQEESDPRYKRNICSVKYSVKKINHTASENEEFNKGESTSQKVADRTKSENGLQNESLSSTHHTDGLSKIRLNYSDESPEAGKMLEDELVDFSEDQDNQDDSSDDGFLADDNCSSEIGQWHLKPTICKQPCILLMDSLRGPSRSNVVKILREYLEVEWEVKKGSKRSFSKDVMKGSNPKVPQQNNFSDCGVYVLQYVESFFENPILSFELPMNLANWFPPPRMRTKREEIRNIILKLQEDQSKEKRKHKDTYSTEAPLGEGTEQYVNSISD
The assay is classed as functional.

Assay [6] has as its target T2, Sentrin-specific protease 8 (Homo sapiens, UniProt Q96LD8).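 Also: luminescence read-out of SENP8 inhibition, dose-response confirmation following an ultra-high-throughput screen.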
T2 sequence (Q96LD8 whole entry): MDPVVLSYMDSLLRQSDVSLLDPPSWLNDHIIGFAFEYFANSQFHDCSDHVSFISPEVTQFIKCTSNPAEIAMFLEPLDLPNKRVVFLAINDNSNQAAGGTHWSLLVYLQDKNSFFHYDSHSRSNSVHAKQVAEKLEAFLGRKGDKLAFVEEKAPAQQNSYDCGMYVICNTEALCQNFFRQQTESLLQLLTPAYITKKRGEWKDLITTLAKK
The assay is classed as functional.

For assay [7], the target named is T3, Apoptotic protease-activating factor 1 (Homo sapiens, UniProt O14727).
T3 sequence (O14727 whole entry): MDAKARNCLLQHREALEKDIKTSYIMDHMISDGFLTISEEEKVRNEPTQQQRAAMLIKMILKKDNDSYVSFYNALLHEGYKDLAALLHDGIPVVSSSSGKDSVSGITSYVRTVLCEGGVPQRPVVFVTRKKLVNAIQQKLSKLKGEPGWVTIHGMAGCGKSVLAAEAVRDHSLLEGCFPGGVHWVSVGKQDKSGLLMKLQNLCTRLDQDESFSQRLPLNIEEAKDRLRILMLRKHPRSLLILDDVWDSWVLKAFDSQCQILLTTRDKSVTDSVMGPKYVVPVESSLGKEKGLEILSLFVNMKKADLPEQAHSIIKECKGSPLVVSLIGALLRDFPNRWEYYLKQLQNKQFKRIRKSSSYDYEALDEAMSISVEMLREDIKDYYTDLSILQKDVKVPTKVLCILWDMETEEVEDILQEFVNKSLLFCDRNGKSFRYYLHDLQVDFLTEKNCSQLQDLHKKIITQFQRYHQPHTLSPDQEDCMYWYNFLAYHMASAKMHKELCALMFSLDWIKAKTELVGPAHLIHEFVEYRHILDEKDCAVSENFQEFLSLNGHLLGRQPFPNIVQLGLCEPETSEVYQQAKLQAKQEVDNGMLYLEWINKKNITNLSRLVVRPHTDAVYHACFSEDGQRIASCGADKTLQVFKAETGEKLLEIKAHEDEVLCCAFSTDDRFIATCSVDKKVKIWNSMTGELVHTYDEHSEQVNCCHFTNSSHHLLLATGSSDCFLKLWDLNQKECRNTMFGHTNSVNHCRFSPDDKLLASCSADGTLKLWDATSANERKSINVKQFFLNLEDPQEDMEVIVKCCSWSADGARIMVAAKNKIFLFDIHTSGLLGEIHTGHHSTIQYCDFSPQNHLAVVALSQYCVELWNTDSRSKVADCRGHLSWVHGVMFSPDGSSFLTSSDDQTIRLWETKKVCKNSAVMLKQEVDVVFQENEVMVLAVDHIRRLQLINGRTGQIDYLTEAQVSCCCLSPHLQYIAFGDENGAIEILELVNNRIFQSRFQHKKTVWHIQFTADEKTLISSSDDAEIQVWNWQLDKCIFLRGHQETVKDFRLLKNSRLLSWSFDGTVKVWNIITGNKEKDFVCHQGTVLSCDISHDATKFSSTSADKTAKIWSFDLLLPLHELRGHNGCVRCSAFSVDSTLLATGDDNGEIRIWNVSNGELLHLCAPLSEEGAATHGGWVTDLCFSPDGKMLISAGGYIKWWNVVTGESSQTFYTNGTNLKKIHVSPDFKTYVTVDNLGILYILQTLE
The assay is classed as functional.

Assay [8] deals with Dual specificity tyrosine-phosphorylation-regulated kinase 1A (Rattus norvegicus, UniProt Q63470). Type of assay: biochemical, Homo sapiens.
The nature of assay [9]: Intein inhibitors as potential Tuberculosis drugs, a cytotoxicity screen. [Related pubchem assays (depositor defined):AID2221, AID2223, AID434968, AID435010, AID449749, AID449750, AID489010]. The assay is classed as functional.
Assay [10] addresses Dual specificity protein phosphatase 3 (Homo sapiens, UniProt P51452). As to the kind of experiment: VHR1 phosphatase inhibitors, primary screen, biochemical, absorbance, uHTS (AID 1654).

Calls of active or inactive are those of the source.
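For CC50 in this document: cells exposed to compound for 72 hours before luminescence readout.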

Sequence of Proto-oncogene tyrosine-protein kinase Src (P12931 2-536 limits assumed): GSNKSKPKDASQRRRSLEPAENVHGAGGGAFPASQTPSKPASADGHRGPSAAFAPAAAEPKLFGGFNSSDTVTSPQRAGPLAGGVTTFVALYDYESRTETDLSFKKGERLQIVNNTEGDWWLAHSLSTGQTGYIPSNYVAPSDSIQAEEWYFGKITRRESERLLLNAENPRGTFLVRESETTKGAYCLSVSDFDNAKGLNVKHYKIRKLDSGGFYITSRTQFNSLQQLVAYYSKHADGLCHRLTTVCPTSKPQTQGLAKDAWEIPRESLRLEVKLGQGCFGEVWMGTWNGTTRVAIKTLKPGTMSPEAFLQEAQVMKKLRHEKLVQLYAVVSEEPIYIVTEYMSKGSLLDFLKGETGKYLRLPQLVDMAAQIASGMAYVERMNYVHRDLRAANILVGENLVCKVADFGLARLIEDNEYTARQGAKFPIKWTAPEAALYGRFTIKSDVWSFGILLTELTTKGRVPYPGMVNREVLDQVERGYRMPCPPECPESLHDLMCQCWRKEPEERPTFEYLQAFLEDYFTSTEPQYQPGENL
Sequence of Mitogen-activated protein kinase kinase kinase kinase 5 (Q9Y4K4 whole entry): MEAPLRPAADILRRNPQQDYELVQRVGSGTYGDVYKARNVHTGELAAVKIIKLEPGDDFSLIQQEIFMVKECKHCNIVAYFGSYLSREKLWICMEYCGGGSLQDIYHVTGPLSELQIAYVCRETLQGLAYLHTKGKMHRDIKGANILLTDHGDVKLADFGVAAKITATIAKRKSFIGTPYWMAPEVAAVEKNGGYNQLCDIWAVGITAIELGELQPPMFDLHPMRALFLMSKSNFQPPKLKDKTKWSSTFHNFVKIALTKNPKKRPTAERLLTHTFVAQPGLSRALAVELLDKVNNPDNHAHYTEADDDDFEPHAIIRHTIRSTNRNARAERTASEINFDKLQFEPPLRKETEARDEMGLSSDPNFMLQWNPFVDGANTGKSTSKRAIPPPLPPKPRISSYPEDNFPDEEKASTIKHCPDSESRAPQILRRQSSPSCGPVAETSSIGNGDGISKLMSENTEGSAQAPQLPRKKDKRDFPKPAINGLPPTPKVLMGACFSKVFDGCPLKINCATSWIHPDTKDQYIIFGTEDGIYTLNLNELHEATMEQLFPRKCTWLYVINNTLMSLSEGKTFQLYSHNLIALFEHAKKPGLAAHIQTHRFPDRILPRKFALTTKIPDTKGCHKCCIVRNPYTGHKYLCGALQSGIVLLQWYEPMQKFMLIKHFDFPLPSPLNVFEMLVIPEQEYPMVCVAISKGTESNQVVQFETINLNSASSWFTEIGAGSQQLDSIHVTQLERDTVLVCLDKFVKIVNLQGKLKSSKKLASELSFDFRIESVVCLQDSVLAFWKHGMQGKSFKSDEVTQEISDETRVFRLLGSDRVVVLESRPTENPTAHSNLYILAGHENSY
Sequence of Dual specificity protein phosphatase 3 (P51452 whole entry): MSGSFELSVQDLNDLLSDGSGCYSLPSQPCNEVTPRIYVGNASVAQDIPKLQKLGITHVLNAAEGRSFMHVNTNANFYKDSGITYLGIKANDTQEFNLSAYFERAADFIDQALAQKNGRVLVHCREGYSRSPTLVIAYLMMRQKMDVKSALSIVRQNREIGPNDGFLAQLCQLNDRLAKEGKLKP

Broadly, the Ki is the dissociation constant of the complex between target and ligand, obtained from inhibition or displacement. Take `COc1cc2c(cc1Nc1nc(Nc3cccc(F)c3C(N)=O)c3cc[nH]c3n1)N(C(=O)CN(C)C)CC2`: the Ki in assay [1] is > 2 µM (inactive); in assay [2], > 7.94 µM (inactive); in assay [3], > 3.98 µM (inactive); in assay [4], 0.002 µM (active).
One may read the IC50 as the concentration needed to halve the response being measured. For the compound `CC(C)c1ccc(-c2nnn(CCC(=O)O)n2)cc1`, the half-inhibitory concentration (IC50) was 9.32 µM (active) in assay [5] and 7.27 µM (active) in assay [6].
As a reminder, the AC50 is the midpoint of the concentration-response curve, whichever way the signal moves. A word on the CC50: it is the concentration giving 50% cytotoxicity. For the compound `CCn1nc(/C=C/c2ccccc2)nc2c(=O)n(C)c(=O)nc1-2`, the half-inhibitory concentration (IC50) in assay [7] was 0.0572 µM (active); in [10], 2.24 µM (active). Also, in assay [8], the AC50 was 0.281 µM (active). For the same compound, the CC50 in assay [9] was > 40 µM (active).

(Values after ChEMBL document CHEMBL1201862, “PubChem BioAssay data set” (2004).)
